The text below walks through data of patent US20260308149A1, “NOVEL CARBOXAMIDE DERIVATIVES” (ANGELINI PHARMA S.P.A., priority 2023, published 2026).

The target in the test is T1, human Kv7.2 (Homo sapiens, UniProt O43526).
T1 construct: expressed in transfected cells
T1 sequence (O43526 whole entry): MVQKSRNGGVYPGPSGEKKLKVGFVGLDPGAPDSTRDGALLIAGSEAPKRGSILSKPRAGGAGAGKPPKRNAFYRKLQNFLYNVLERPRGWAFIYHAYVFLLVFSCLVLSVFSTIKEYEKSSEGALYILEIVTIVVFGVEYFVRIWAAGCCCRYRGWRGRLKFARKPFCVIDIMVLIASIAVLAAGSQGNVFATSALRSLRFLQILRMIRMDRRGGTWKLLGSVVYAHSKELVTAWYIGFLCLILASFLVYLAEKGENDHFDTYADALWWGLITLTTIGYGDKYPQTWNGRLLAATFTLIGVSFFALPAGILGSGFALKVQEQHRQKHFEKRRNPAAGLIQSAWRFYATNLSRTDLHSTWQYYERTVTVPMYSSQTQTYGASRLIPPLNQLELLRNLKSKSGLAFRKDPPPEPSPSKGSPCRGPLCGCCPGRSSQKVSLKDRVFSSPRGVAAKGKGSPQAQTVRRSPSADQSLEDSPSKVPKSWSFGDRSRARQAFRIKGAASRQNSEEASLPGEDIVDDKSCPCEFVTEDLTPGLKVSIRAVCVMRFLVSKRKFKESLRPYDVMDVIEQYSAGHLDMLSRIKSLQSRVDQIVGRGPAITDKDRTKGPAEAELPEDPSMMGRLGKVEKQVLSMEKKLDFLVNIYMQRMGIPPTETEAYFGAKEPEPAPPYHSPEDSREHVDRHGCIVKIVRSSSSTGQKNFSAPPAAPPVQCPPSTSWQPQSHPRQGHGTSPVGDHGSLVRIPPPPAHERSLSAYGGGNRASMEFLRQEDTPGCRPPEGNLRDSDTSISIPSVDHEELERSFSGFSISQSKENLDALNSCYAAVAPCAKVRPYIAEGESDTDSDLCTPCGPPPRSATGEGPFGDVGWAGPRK
The test can be described thus: activation (potentiation) of Kv7.2 current, SyncroPatch 384 electrophysiology in CHO cells stably expressing human Kv7.2. Format: cell-based. The settings on record: human Kv7.2 in CHO cells; in presence of 5.6 μM zinc pyrithione; % activation relative to 30 μM ML-213. The protocol: The potency of Kv7 potentiators was determined using the SyncroPatch 384 (Nanion) high throughput electrophysiology platform.
CHO cells stably expressing either human Kv7.2, Kv7.4 or Kv7.5/7.3 under a constitutive CMV promoter were used for these studies. Cells were maintained in F12 Hams+1 mM L-glutamine (Hyclone) supplemented with 10% FBS (Sigma), 0.3×NEAA (Non-essential Gamino-acids) and 400 ug/ml G418 at 37° C. in 5% CO2. Cells were cultured in T-225 flasks (Nunc) for 2-3 days to reach 85-95% confluence prior to electrophysiological recording.
Earle's balanced salt solution (in mM): 135 NaCl, 5.4 KCl, 5 Glucose, 2 CaCl2), 1 MgCl2, 5 HEPES, pH 7.4. Seal enhancer solution (in mM): 90 NaCl, 3 KCl, 35 CaCl2), 10 MgCl2, 10 HEPES, pH 7.4. Extracellular recording solution (in mM): 71 NaCl, 70 NMDG, 13 KCl. 5 Glucose, 2 CaCl2, 1 MgCl2, 10 HEPES, pH 7.4. Intracellular recording solution (in mM): 130 KF, 20 KCl, 4 EGTA, 10 HEPES, 2 EDTA, 0.01 Escin, pH 7.2.
Cells were harvested for electrophysiological recording upon reaching appropriate confluence. Cells were first washed in DPBS (Hyclone, Cat #SH30028.03) and then 2 ml of Accutase (MP Biomedicals #1000449) was added at 28° C. until ~90% of cells were suspended. F12 HAM's media+1 mM L-glutamine (Hyclone, SH30026.02) was then added to the flask to dilute the accutase. Cells were then triturated until a single cell suspension was achieved, a cell count was performed, and cells were centrifuged for 2 min. at 1,000 rpm. Media was then aspirated, and cells were resuspended in Earle's balanced salt solution to a concentration of 0.75×10^6 cells/ml and allowed to recover for 25 min at 10° C.
At the beginning of each assay, 20 μl of cell suspension was dispensed into each well of a multi-hole 384-well SyncroPatch chip by the onboard pipettor. Cell sealing was initiated, and seal enhancer solution was added to facilitate seal formation. Upon completion of sealing, cells were washed 3 times with extracellular recording solution and the assay voltage protocol was started. Human Kv7.2, Kv7.4 or Kv7.5/7.3 channels were evaluated using a voltage protocol in which cells were voltage-clamped at a holding potential of −60 mV. Potassium currents were continuously activated with a series of three voltage steps to −30 mV for 3 seconds, 40 mV for 1 second and −90 mV for 4 seconds with 12 seconds between successive voltage sweeps. Potassium currents were measured from the −90 mV repolarizing step. Baseline current was assessed for 3.5 minutes prior to the addition of 5.6 μM zinc pyrithione (1 μM for Kv7.4). Kv7.2, Kv7.4 or Kv7.5/7.3 current in the presence of zinc pyrithione was acquired over five minutes to allow channels to reach steady state activity prior to addition of test agents. Channel activity was monitored for three minutes preceding the addition of 30 μM ML-213 (3 minutes) to achieve maximum activation. 150 mM TEA with 10 μM XE-991 was applied for 2 minutes to measure the leak current during maximum inhibition of Kv7.2, Kv7.4 or Kv7.5/7.3 channels.
Data were collected on the SyncroPatch platform using PatchControl software (Nanion) and processed and analyzed using DataControl Software (Nanion). Percent activation was calculated from potassium current as follows: The average current for the 5 sweeps in the presence of zinc pyrithione immediately preceding test agent addition was taken as the ‘control’ data. Likewise, the average potassium current in the presence of test agents 5 sweeps immediately preceding addition of 30 μM ML-213 was determined for ‘drug’ data. The average potassium current 5 sweeps immediately prior to addition of 150 mM TEA+10 μM XE-991 was determined for ‘max activation’ data while average currents from 5 sweeps immediately following addition of TEA was determined for ‘max inhibition’ data. Percent activation for each of the 384-wells of a sealchip was calculated as ((‘drug’−‘max inhibition’)/(‘max activation’−‘max inhibition’))*100 with Pipeline Pilot (Accelrys). […]
A general note: In patch-clamp work, channel activity is measured electrically.
As for `CO[C@@](C)(CNC(=O)CCC(O)C(C)(C)C)c1cccc(Cl)c1` (stereo partly drawn) [Example 69, N-[(2R)-2-(3-chlorophenyl)-2-methoxy-propyl]-4-hydroxy-5,5-dimethyl-hexanamide], the EC50 was found to be 6.29 µM.
The figure for `N#Cc1cccc([C@]2(CNC(=O)C(F)CC3CCCC3)CCO2)c1` (stereo partly drawn) [Example 103, N-[[(2S)-2-(3-cyanophenyl)oxetan-2-yl]methyl]-3-cyclopentyl-2-fluoro-propanamide] is 6.14 µM; for `N#Cc1cccc([C@]2(CNC(=O)CC3CC4CCC3C4)CCO2)c1` (stereo partly drawn) [Example 108, N-[[(2S)-2-(3-cyanophenyl)oxetan-2-yl]methyl]-2-norbornan-2-yl-acetamide] it is 0.41 µM.
For `O=C(NCC1(c2cccc(Cl)c2)CCO1)C1CC2(CCC2)C1` (stereo not shown) [Example 64, N-[[2-(3-chlorophenyl)oxetan-2-yl]methyl]spiro[3.3]heptane-2-carboxamide], the EC50 came out at 2.75 µM.
For `O=C(NC[C@@]1(c2cccc(Cl)c2)CCO1)[C@H]1C[C@@H]1c1ccccc1` [Example 40, (1S,2S)-N-[[(2S)-2-(3-chlorophenyl)oxetan-2-yl]methyl]-2-phenyl-cyclopropanecarboxamide], the EC50 was 0.11 µM.
In the case of `O=C1CCC(CNC(=O)[C@H]2C[C@@H]2c2ccccc2)(c2cccc(Cl)c2)O1` (stereo partly drawn) [Example 66, (1S,2S)-N-[[2-(3-chlorophenyl)-5-oxo-tetrahydrofuran-2-yl]methyl]-2-phenyl-cyclopropanecarboxamide] it was 0.08 µM; in that of `CO[C@@](C)(CNC(=O)NC1CCCC1)c1cccc(Cl)c1` [Example 16, 1-[(2R)-2-(3-chlorophenyl)-2-methoxy-propyl]-3-cyclopentyl-urea], 2.87 µM; in that of `N#Cc1cccc([C@]2(CNC(=O)[C@H]3C[C@@H]3c3ccccc3)CCO2)c1` [Example 49, (1S,2S)-N-[[(2S)-2-(3-cyanophenyl)oxetan-2-yl]methyl]-2-phenyl-cyclopropanecarboxamide], 0.04 µM.
The figure for `COC(C)(CNC(=O)C1CC1c1ccccc1F)c1cccc(Cl)c1` (stereo not shown) [Example 43, N-[2-(3-chlorophenyl)-2-methoxy-propyl]-2-(2-fluorophenyl)cyclopropanecarbox-amide] is 0.11 µM; for `O=C(N[C@H]1C[C@@H]2CC[C@H]1C2)N[C@H]1C[C@H](c2cccc(Cl)c2)C1` (racemic) [Example 38, 1-[3-(1r,3r)-(3-chlorophenyl)cyclobutyl]-3-[(1SR,2SR,4RS)-norbornan-2-yl]urea] it is 0.83 µM; for `O=C(CC1CCCCC1)NCC1(c2ccnc(OC(F)F)c2)CCO1` (stereo not shown) [Example 117, 2-cyclohexyl-N-[[2-[2-(difluoromethoxy)-4-pyridyl]oxetan-2-yl]methyl]acetamide] it is 4.33 µM.
The figure for `COC(C)(CNC(=O)NCC1CCCC1)c1cccc(Cl)c1` (stereo not shown) [Example 21, 1-[2-(3-chlorophenyl)-2-methoxy-propyl]-3-(cyclopentylmethyl)urea] is 0.55 µM.
Turning to `Cc1ccc(C2CC2C(=O)NC[C@@]2(c3cccc(C#N)c3)CCO2)o1` (stereo partly drawn) [Example 133, N-[[(2S)-2-(3-cyanophenyl)oxetan-2-yl]methyl]-2-(5-methyl-2-furyl)cyclopropanecarboxamide], the half-maximal effective concentration (EC50) was found to be 0.5 µM.
On to `COC(C)(CNC(=O)NC1CC2CCC1C2)c1cccc(Cl)c1` (racemic) [Example 35, 1-[2-(3-chlorophenyl)-2-methoxy-propyl]-3-[rac-(1S,4R)-norbornan-2-yl]urea], for which the EC50 was 1.35 µM.
In the case of `COC(C)(CNC(=O)NCc1ccco1)c1cccc(Cl)c1` (stereo not shown) [Example 9, 1-[2-(3-chlorophenyl)-2-methoxy-propyl]-3-(2-furylmethyl)urea] it was 2.46 µM; in that of `O=C(NCC(OC1CC1)c1cccc(Cl)c1)NC1CCCC1` (stereo not shown) [Example 18, 1-[2-(3-chlorophenyl)-2-(cyclopropoxy)ethyl]-3-cyclopentyl-urea], 4.58 µM.

By EC50 is commonly meant the concentration at which the effect is half-maximal.
